Measurements published in patent publication US20030166645A1, “Novel nitrofuran-containing heterocyclic compounds and uses thereof” (priority 2001, published 2003).
Values after ≈ are worked out from the molar mass of the structure shown. Where two headings read alike, the source gives them in different places.

Experiments:
P aeruginosa = experiment: Microdilution antimicrobial susceptibility test (MIC); assay type: cell-based; settings: broth microdilution, 18-24 h, MIC = 90% inhibition of growth; for MIC: read-out: MIC P aeruginosa MIC2
S aureus = experiment: as above; assay type: cell-based; settings: broth microdilution, 18-24 h, MIC = 90% inhibition of growth; for MIC: read-out: MIC S aureus MIC2
H influenzae = experiment: as above; assay type: cell-based; settings: broth microdilution, 18-24 h, MIC = 90% inhibition of growth; for MIC: read-out: MIC H influenzae MIC4
M. catarrhalis = experiment: as above; assay type: cell-based; settings: broth microdilution, 18-24 h, MIC = 90% inhibition of growth; for MIC: Moraxella catarrhalis, read-out: MIC M. catarrhalis MIC2
S cerevisiae = experiment: as above; assay type: cell-based; settings: broth microdilution, 18-24 h, MIC = 90% inhibition of growth; for MIC: read-out: MIC S cerevisiae MIC7
E faecalis = experiment: as above; assay type: cell-based; settings: broth microdilution, 18-24 h, MIC = 90% inhibition of growth; for MIC: read-out: MIC E faecalis MIC2
E coli = experiment: as above; assay type: cell-based; settings: broth microdilution, 18-24 h, MIC = 90% inhibition of growth; for MIC: read-out: MIC E coli MIC2
E coli (ImpA) = experiment: as above; assay type: cell-based; settings: broth microdilution, 18-24 h, MIC = 90% inhibition of growth
Description: Microdilution Antimicrobial Susceptibility Test Assay
Stock solutions of tested compounds were prepared in N,N-dimethylformamide (DMF) at a concentration of 5 mg/mL. Working solutions of the tested compounds were then prepared from the stock solutions, in Mueller-Hinton broth (MHB) with a starting concentration of 64 μg/mL.
Bacterial inocula were prepared from overnight culture (i.e., one fresh colony from agar plate in 5 ml MHB; H. influenzae was grown in MHB with the addition of yeast extract, haematin, and NAD), centrifuged 2×5 min/3000 rpm (for S. pneumoniae and H. influenzae, 2×10 min/3000 rpm), and dispensed in 5 ml of fresh MHB each time, such that the bacterial suspension is diluted to obtain 100 colony forming units (cfu) in a microplate well (100 μl total volume).
Microplate wells were filled with two-fold dilutions of test compound (50 Al), starting with 64 μg/ml. Wells were then filled with 50 μl of bacterial inoculum (final volume: 100 μl/well). The plates were incubated at 37° C. for 18-24 hours (S. pneumoniae was grown in a CO2-enriched atmosphere).

S pneumoniae = experiment: as above; assay type: cell-based; settings: broth microdilution, 18-24 h, CO2-enriched atmosphere, MIC = 90% inhibition of growth; for MIC: read-out: MIC S pneumoniae MIC6
Bacteroides fragilis [1] = experiment: Antimicrobial agar dilution test of anaerobic bacteria (MIC); assay type: cell-based; settings: 48 h
[2] = test system: Bacteroides thetaiotaomicron; assay type: cell-based; settings: agar dilution, anaerobic, 48 h
Bacteroides vulgatus = experiment: Antimicrobial agar dilution test of anaerobic bacteria (MIC); assay type: cell-based; settings: 48 h
Peptostreptococcus sp = assay type: cell-based
Bacteroides fragilis [3] = assay type: cell-based
E. coli = experiment: Systemic bacterial infection model, mice infected with E. coli
Clostridium perfringens = assay type: cell-based; settings: disk 200 μg, anaerobic, 24-48 h
S. aureus = experiment: Systemic bacterial infection model, mice infected with S. aureus

| SMILES | MIC P aeruginosa MIC2 (P aeruginosa) | MIC S aureus MIC2 (S aureus) | MIC H influenzae MIC4 (H influenzae) | MIC M. catarrhalis MIC2 (M. catarrhalis) | MIC S cerevisiae MIC7 (S cerevisiae) | MIC E faecalis MIC2 (E faecalis) | MIC E coli MIC2 (E coli) | MIC E coli (ImpA) MIC9 (E coli (ImpA)) | MIC S pneumoniae MIC6 (S pneumoniae) | MIC Bacteroides fragilis (Bacteroides fragilis [1]; first B. fragilis column) | MIC Bacteroides fragilis (Bacteroides fragilis [1]; second B. fragilis column) | MIC Bacteroides fragilis (Bacteroides fragilis [1]; third B. fragilis column) | MIC Bacteroides thetaiotaomicron [2] | MIC Bacteroides vulgatus (Bacteroides vulgatus) | also measured |
| --- | --- | --- | --- | --- | --- | --- | --- | --- | --- | --- | --- | --- | --- | --- | --- |
| O=[N+]([O-])c1ccc(-c2nnc(S(=O)(=O)O)n2C2CCCCC2)o1 [Compound 131] | >64 µg/mL | >64 µg/mL | 64 µg/mL (≈ 187 µM) | 8 µg/mL (≈ 23.4 µM) | >64 µg/mL | >64 µg/mL | >64 µg/mL | >64 µg/mL | 64 µg/mL (≈ 187 µM) | – | – | – | – | – | – |
| O=[N+]([O-])c1ccc(-c2nnc(S(=O)(=O)O)n2-c2ccc(Cl)cc2)o1 [Compound 132] | >64 µg/mL | 32 µg/mL (≈ 86.3 µM) | 8 µg/mL (≈ 21.6 µM) | 4 µg/mL (≈ 10.8 µM) | 64 µg/mL (≈ 173 µM) | >64 µg/mL | >64 µg/mL | 16 µg/mL (≈ 43.2 µM) | 32 µg/mL (≈ 86.3 µM) | – | – | – | – | – | – |
| O=[N+]([O-])c1ccc(-c2nnc(S)n2-c2cccc(Cl)c2)o1 [Compound 140] | >64 µg/mL | 1 µg/mL (≈ 3.1 µM) | 4 µg/mL (≈ 12.4 µM) | <0.12 µg/mL | >64 µg/mL | 16 µg/mL (≈ 49.6 µM) | >64 µg/mL | 0.5 µg/mL (≈ 1.55 µM) | 2 µg/mL (≈ 6.2 µM) | – | – | – | – | – | – |
| O=[N+]([O-])c1ccc(-c2nnc(S)n2-c2ccc(Oc3ccccc3)cc2)o1 [Compound 143] | >64 µg/mL | 0.25 µg/mL (≈ 0.657 µM) | >64 µg/mL | <0.12 µg/mL | >64 µg/mL | 1 µg/mL (≈ 2.63 µM) | >64 µg/mL | <0.12 µg/mL | 0.5 µg/mL (≈ 1.31 µM) | – | – | – | – | – | – |
| C[C@@H](O)[C@H]1C(=O)N2C(C(=O)O)=C(SCCN=CN)C[C@H]12 [Imipenem] | – | – | – | – | – | – | – | – | – | < 0.125 µg/mL | < 0.125 µg/mL | < 0.125 µg/mL | < 0.125 µg/mL | < 0.125 µg/mL | – |
| O=C1CN(/N=C/c2ccc([N+](=O)[O-])o2)C(=O)N1 [Nitrofurantoin, reference compound] | – | – | – | – | – | – | – | – | – | 2 µg/mL (≈ 8.4 µM) | 2 µg/mL (≈ 8.4 µM) | 2 µg/mL (≈ 8.4 µM) | 2 µg/mL (≈ 8.4 µM) | < 0.125 µg/mL | MIC (P aeruginosa): > 64 µg/mL; MIC (S aureus): 16 µg/mL (≈ 67.2 µM); MIC (H influenzae): 4 µg/mL (≈ 16.8 µM); MIC (M. catarrhalis): 2 µg/mL (≈ 8.4 µM); Inhibition zones (Peptostreptococcus sp): 12 mm**; MIC (S cerevisiae): > 64 µg/mL; Inhibition zones (Bacteroides fragilis [3]): >25 mm**; Survival (%) (E. coli; Study #3, 50 mg/kg IP QD × 3, 6 days observation): 0%; Survival (%) (E. coli; Study #3, 75 mg/kg IP QD × 3, 6 days observation): 20%; Survival (%) (E. coli; Study #3, 100 mg/kg IP QD × 3, 6 days observation): 0%; MIC (E faecalis): 4 µg/mL (≈ 16.8 µM); Inhibition zones (Clostridium perfringens; Clostridium perfringens (fresh wound isolate)): 21 mm; Inhibition zones (Clostridium perfringens; Clostridium perfringens, diameter includes disk): >25 mm**; MIC (E coli): 8 µg/mL (≈ 33.6 µM); Survival (%) (S. aureus; Study #2, 25 mg/kg IP QD × 3, 6 days observation): 50%; Survival (%) (S. aureus; Study #2, 50 mg/kg IP QD × 3, 6 days observation): 50%; MIC (S pneumoniae): 2 µg/mL (≈ 8.4 µM) |
| CCN1CCN(C(=O)N[C@@H](C(=O)N[C@@H]2C(=O)N3[C@@H]2SC(C)(C)[C@@H]3C(=O)O)c2ccccc2)C(=O)C1=O [Piperacillin] | – | – | – | – | – | – | – | – | – | 2 µg/mL (≈ 3.86 µM) | 16 µg/mL (≈ 30.9 µM) | 2 µg/mL (≈ 3.86 µM) | 16 µg/mL (≈ 30.9 µM) | 128 µg/mL (≈ 247 µM) | – |
| COc1cc(Cc2cnc(N)nc2N)cc(OC)c1OC [Trimethoprim, reference compound] | – | – | – | – | – | – | – | – | – | – | – | – | – | – | MIC (P aeruginosa): > 64 µg/mL; MIC (S aureus): 2 µg/mL (≈ 6.89 µM); MIC (H influenzae): < 0.12 µg/mL; MIC (M. catarrhalis): 32 µg/mL (≈ 110 µM); MIC (S cerevisiae): > 64 µg/mL; MIC (E faecalis): < 0.12 µg/mL; MIC (E coli): 0.25 µg/mL (≈ 0.861 µM); MIC (E coli (ImpA); read-out: MIC E coli (ImpA) MIC9): < 0.12 µg/mL; MIC (S pneumoniae): 8 µg/mL (≈ 27.6 µM) |
